Laboratory results reported in patent US20250188092A1, “RIFAMYCIN ANALOGS” (THE REGENTS OF THE UNIVERSITY OF MICHIGAN, priority 2021, published 2025).
Converted amounts (≈) assume the structure as drawn.

Experiments:
[1] = tested on: M. tuberculosis transformed with luxABCDE; test: microbe, parasite or virus in culture; type: cell-based, Mycobacterium tuberculosis; details: for MBC: Mycobacterium tuberculosis, 168 h, ≥99% reduction in luminescence, read-out: MBC99 Day 7 (Lux Assay) MBC
[2] = tested on: non-replicating cultures of M. tuberculosis H37Rv transformed with lux ABCDE; test: microbe, parasite or virus in culture; type: cell-based, Mycobacterium tuberculosis; details: for MIC90: Mycobacterium tuberculosis, H37RV, ≥90% reduction in luminescence, read-out: MIC90 LORA; for MIC90 LORA/MABA: ratio of LORA MIC90 to MABA MIC90

Compound | MBC99 Day 7 (Lux Assay) MBC Rel to RMP [1] | MBC [1] [µM] | MIC90 LORA Rel to RMP [2] | MIC90 [2] [nM] | MIC90 LORA/MABA [2]
CO[C@H]1/C=C/O[C@@]2(C)Oc3c(C)c(O)c4c(=O)c(c5oc6cc(N7CCN(C(=O)C(C)(C)C)CC7)cc(C)c6nc-5c4c3C2=O)NC(=O)/C(C)=C\C=C\[C@H](C)[C@H](O)[C@@H](C)[C@@H](O)[C@@H](C)[C@H](OC(C)=O)[C@@H]1C [Compound 26f, (7S,9E,11S,12R,13S,14R,15R,16R,17S,18S,19E,21Z)-30-[4-(2,2-Dimethylpropanoyl)piperazin-1-yl]-2,15,17-trihydroxy-11-methoxy-3,7,12,14,16,18,22,32-octamethyl-6,23,37-trioxo-8,27,38-trioxa-24,34-diazahexacyclo[23.11.1.1^4,7.0^5,36.0^26,35.0^28,33]octatriaconta-1(36)2,4,9,19,21,25,28,30,32,34-undecaen-13-yl acetate] | 0.09 | 0.043 | 0.05 | 9.5 | 2.1
COC(=O)N1CCN(c2cc(C)c3nc4c5c6c7c(C)c(O)c5c(=O)c(c-4oc3c2)NC(=O)/C(C)=C\C=C\[C@H](C)[C@H](O)[C@@H](C)[C@@H](O)[C@@H](C)[C@H](OC(C)=O)[C@H](C)[C@@H](OC)/C=C/O[C@@](C)(O7)C6=O)CC1 [Compound 26g, Methyl 4-[(7S,9E,11S,12R,13S,14R,15R,16R,17S,18S,19E,21Z)-13-(acetyloxy)-2,15,17-trihydroxy-11-methoxy-3,7,12,14,16,18,22,32-octamethyl-6,23,37-trioxo-8,27,38-trioxa-24,34-diazahexacyclo[23.11.1.1^4,7.0^5,36.0^26,35.0^28,33]octatriaconta-1(36)2,4,9,19,21,25,28,30,32,34-undecaen-30-yl]piperazine-1-carboxylate] | 0.09 | 0.043 (≈ 0.0405 µg/mL) | 0.05 | 9.6 (≈ 0.00903 µg/mL) | 1.9
CCOC(=O)N1CCN(c2cc(C)c3nc4c5c6c7c(C)c(O)c5c(=O)c(c-4oc3c2)NC(=O)/C(C)=C\C=C\[C@H](C)[C@H](O)[C@@H](C)[C@@H](O)[C@@H](C)[C@H](OC(C)=O)[C@H](C)[C@@H](OC)/C=C/O[C@@](C)(O7)C6=O)CC1 [Compound 26h, Ethyl 4-[(7S,9E,11S,12R,13S,14R,15R,16R,17S,18S,19E,21Z)-13-(acetyloxy)-2,15,17-trihydroxy-11-methoxy-3,7,12,14,16,18,22,32-octamethyl-6,23,37-trioxo-8,27,38-trioxa-24,34-diazahexacyclo[23.11.1.1^4,7.0^5,36.0^26,35.0^28,33]octatriaconta-1(36)2,4,9,19,21,25,28,30,32,34-undecaen-30-yl]piperazine-1-carboxylate] | 0.06 | 0.028 (≈ 0.0267 µg/mL) | 0.05 | 9.4 (≈ 0.00898 µg/mL) | 1.9
CO[C@H]1/C=C/O[C@@]2(C)Oc3c(C)c(O)c4c(=O)c(c5oc6cc(N7CCN(C(=O)OC(C)(C)C)CC7)cc(C)c6nc-5c4c3C2=O)NC(=O)/C(C)=C\C=C\[C@H](C)[C@H](O)[C@@H](C)[C@@H](O)[C@@H](C)[C@H](OC(C)=O)[C@@H]1C [Compound 26i, tert-Butyl 4-[(7S,9E,11S,12R,13S,14R,15R,16R,17S,18S,19E,21Z)-13-(acetyloxy)-2,15,17-trihydroxy-11-methoxy-3,7,12,14,16,18,22,32-octamethyl-6,23,37-trioxo-8,27,38-trioxa-24,34-diazahexacyclo[23.11.1.1^4,7.0^5,36.0^26,35.0^28,33]octatriaconta-1(36)2,4,9,19,21,25,28,30,32,34-undecaen-30-yl]piperazine-1-carboxylate] | 0.10 | 0.047 (≈ 0.0462 µg/mL) | 0.05 | 9.3 (≈ 0.00914 µg/mL) | 2.0
CO[C@H]1/C=C/O[C@@]2(C)Oc3c(C)c(O)c4c(=O)c(c5oc6cc(N7CCCC(C(=O)Nc8ccc(Cl)cc8)C7)cc(C)c6nc-5c4c3C2=O)NC(=O)/C(C)=C\C=C\[C@H](C)[C@H](O)[C@@H](C)[C@@H](O)[C@@H](C)[C@H](OC(C)=O)[C@@H]1C (stereo partly drawn) [Compound 28, (7S,9E,11S,12R,13S,14R,15R,16R,17S,1S,19E,21Z)-30-{3-[(4-Chlorophenyl)carbamoyl]piperidin-1-yl}-2,15,17-trihydroxy-11-methoxy-3,7,12,14,16,18,22,32-octamethyl-6,23,37-trioxo-8,27,38-trioxa-24,34-diazahexacyclo[23.11.1.1^4,7.0^5,36.0^26,35.0^28,33]octatriaconta-1(36)2,4,9,19,21,25,28,30,32,34-undecaen-13-yl acetate] | 0.05 | 0.025 | 0.04 | 9.2 | 2.1
CO[C@H]1/C=C/O[C@@]2(C)Oc3c(C)c(O)c4c(=O)c(c5oc6cc(N7CCN(C(=O)c8cccc(-c9ccccn9)c8)CC7)cc(C)c6nc-5c4c3C2=O)NC(=O)/C(C)=C\C=C\[C@H](C)[C@H](O)[C@@H](C)[C@@H](O)[C@@H](C)[C@H](OC(C)=O)[C@@H]1C [Compound 29b, (7S,9E,11S,12R,13S,14R,15R,16R,17S,18S,19E,21Z)-2,15,17-Trihydroxy-11-methoxy-3,7,12,14,16,18,22,32-octamethyl-6,23,37-trioxo-30-(4-[3-(pyridin-2-yl)benzoyl]piperazin-1-yl)-8,27,38-trioxa-24,34-diazahexacyclo-[23.11.1.1^4,7.0^5,36.0^26,35.0^28,33]octatriaconta-1(36)2,4,9,19,21,25,28,30,32,34-undecaen-13-yl acetate] | 0.11 | 0.05 | 0.03 | 6 | 0.7
CO[C@H]1/C=C/O[C@@]2(C)Oc3c(C)c(O)c4c(=O)c(c5oc6cc(N7CCN(C(=O)c8ccc9occc9c8)CC7)cc(C)c6nc-5c4c3C2=O)NC(=O)/C(C)=C\C=C\[C@H](C)[C@H](O)[C@@H](C)[C@@H](O)[C@@H](C)[C@H](OC(C)=O)[C@@H]1C [Compound 29c, (7S,9E,11S,12R,13S,14R,15R,16R,17S,18S,19E,21Z)-30-[4-(1-Benzofuran-5-carbonyl)piperazin-1-yl]-2,15,17-trihydroxy-11-methoxy-3,7,12,14,16,18,22,32-octamethyl-6,23,37-trioxo-8,27,38-trioxa-24,34-diazahexacyclo[23.11.1.1^4,7.0^5,36.0^26,35.0^28,33]octatriaconta-(36)2,4,9,19,21,25,28,30,32,34-undecaen-13-yl acetate] | 0.10 | 0.048 | 0.05 | 9.6 | 2.0
CO[C@H]1/C=C/O[C@@]2(C)Oc3c(C)c(O)c4c(=O)c(c5oc6cc(N7CCN(CCCCCCO[C@@H]8COc9nc([N+](=O)[O-])cn9C8)CC7)cc(C)c6nc-5c4c3C2=O)NC(=O)/C(C)=C\C=C\[C@H](C)[C@H](O)[C@@H](C)[C@@H](O)[C@@H](C)[C@H](OC(C)=O)[C@@H]1C [Compound 29e, (7S,9E,11S,12R,13S,14R,15R,16R,17S,18S,19E,21Z)-2,15,17-Trihydroxy-11-methoxy-3,7,12,14,16,18,22,32-octamethyl-30-[4-(6-{[(6S)-2-nitro-5H,6H,7H-imidazo[2,1-b][1,3]oxazin-6-yl]oxy}hexyl)piperazin-1-yl]-6,23,37-trioxo-8,27,38-trioxa-24,34-diazahexacyclo[23.11.1.1^4,7.0^5,36.0^26,35.0^28,33]octatriaconta-1(36)2,4,9,19,21,25,28,30,32,34-undecaen-13-yl acetate] | 0.11 | 0.05 | 0.03 | 8 | 4.0
CO[C@H]1/C=C/O[C@@]2(C)Oc3c(C)c(O)c4c(=O)c(c5oc6cc(N7CCC(C(=O)O)CC7)cc(C)c6nc-5c4c3C2=O)NC(=O)/C(C)=C\C=C\[C@H](C)[C@H](O)[C@@H](C)[C@@H](O)[C@@H](C)[C@H](OC(C)=O)[C@@H]1C [Compound 29f, 1-[(7S,9E,11S,12R,13S,14R,15R,16R,17S,18S,19E,21Z)-13-(acetyloxy)-2,15,17-trihydroxy-11-methoxy-3,7,12,14,16,18,22,32-octamethyl-6,23,37-trioxo-8,27,38-trioxa-24,34-diazahexacyclo-[23.11.1.1^4,7.0^5,36.0^26,35.0^28,33]octatriaconta-1,3,5(36)9,19,21,25,28,30,32,34-undecaen-30-yl]piperidine-4-carboxylic acid] | – | > 0.1 | 40 | 1070 (≈ 0.987 µg/mL) | 4.5
CO[C@H]1/C=C/O[C@@]2(C)Oc3c(C)c(O)c4c(=O)c(c5oc6cc(N7CCC(CC(=O)O)CC7)cc(C)c6nc-5c4c3C2=O)NC(=O)/C(C)=C\C=C\[C@H](C)[C@H](O)[C@@H](C)[C@@H](O)[C@@H](C)[C@H](OC(C)=O)[C@@H]1C [Compound 29g, 2-{4-[(7S,9E,11S,12R,13S,14R,15R,16R,17S,18S,19E,21Z)-13-(acetyloxy)-2,15,17-trihydroxy-11-methoxy-3,7,12,14,16,18,22,32-octamethyl-6,23,37-trioxo-8,27,38-trioxa-24,34-diazahexacyclo[23.11.1.1^4,7.0^5,36.0^26,35.0^28,33]octatriaconta-1,3,5(36)9,19,21,25,28,30,32,34-undecaen-30-yl]piperidin-4-yl}acetic acid] | – | > 0.1 | 10 | 280 (≈ 0.263 µg/mL) | 5.4
